Tests used:
[1] = tested on: C57BL/6 mice; assay: Acute toxicity study; format: in vivo; details: 200 mg/kg daily for 14 days
Procedure: Sixteen C57BL/6 mice (25 ± 1 g, 8 males, 8 females) were used in acute toxicity studies. The mice were randomly divided into 2 groups (half male, half female each group) and treated with either solvent mixture (control) or 200 mg/kg DK (DK-treated) daily for 14 days. Throughout the study, the animals were monitored for motor activity, mortality, and body weight changes, which were recorded every other day.
At the end of the experiment (24 h after final DK administration), blood samples were collected via direct heart puncture, allowed to clot at room temperature, and centrifuged at 3000 rpm for 15 min. Serum was separated and stored at […] for biochemical analysis. Liver and renal injury markers, including aspartate transaminase (AST), alanine transaminase (ALT), UREA, CREA, albumin (ALB), urine acid (UA) and Glucose (Glu), were measured using an automatic biochemical analyzer (Chemray 240, 420 and 800, Rayto, China).
Following blood collection, the mice were sacrificed, and the heart, liver, spleen, lung and kidney were excised. These tissues were fixed in 4 % paraformaldehyde (PFA), dehydrated gradually using ethanol (50–100 %), and embedded in paraffin after clearing with xylene. Sections ([…] thick) were stained with hematoxylin and eosin (HE) for examination.

[2] = target: T1, dopamine receptor D1 (Homo sapiens, UniProt P21728); assay: DMR desensitization assay, HEK293-D1, probe dopamine; format: cell-based; details: 100 μM DK
T1 construct: expressed in transfected cells; host or cells: HEK293-D1
T1 sequence (P21728 whole entry): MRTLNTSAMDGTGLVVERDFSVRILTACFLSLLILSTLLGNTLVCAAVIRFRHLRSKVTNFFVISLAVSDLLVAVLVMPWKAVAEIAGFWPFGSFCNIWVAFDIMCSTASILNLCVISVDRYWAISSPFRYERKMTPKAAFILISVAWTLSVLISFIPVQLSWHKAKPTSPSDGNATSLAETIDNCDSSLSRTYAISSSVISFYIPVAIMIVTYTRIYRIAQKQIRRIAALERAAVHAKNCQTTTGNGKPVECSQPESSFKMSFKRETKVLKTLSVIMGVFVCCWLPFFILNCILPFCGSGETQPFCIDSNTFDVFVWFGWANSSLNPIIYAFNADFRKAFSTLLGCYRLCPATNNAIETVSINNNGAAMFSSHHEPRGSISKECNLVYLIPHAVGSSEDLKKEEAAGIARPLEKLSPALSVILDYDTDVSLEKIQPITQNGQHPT
Procedure: (§1) DMR assays were performed using an Epic® BT system (Corning, NY, USA). All used cell lines were directly seeded in Epic 384-well biosensor microplates with a seeding density of 25,000 cells per well. After being cultured for about 22 h, the cells formed a monolayer with a confluency of about 95 % in the cell culture medium. Then the cells were manually washed using assay buffer (1 × HBSS buffer, 10 mM HEPES, pH = 7.4) and maintained in 30 μL of the assay buffer for 1 h. All samples were dissolved in DMSO and diluted freshly with the assay buffer containing 0.1 % BSA.
The receptor selectivity was evaluated against a set of G protein-coupled receptors (GPCRs), including opioid receptor (Delta/Kappa/NOP), dopamine receptor (D1/D2), orphan receptor (GPR35), adrenergic receptor (α2A/β2), serotonin receptor (5HT2A), histamine receptor (H1) and cannabinoid receptor (CB1). Following a 1-hour pretreatment with DK, a 2-min baseline was established before introducing probes and monitoring DMR signals for another hour. The cells and probes were as follows: Delta, HEK293-Delta, SNC162; Kappa, HEK293-Kappa, ICI199441; NOP, HEK293-NOP, MCOPPB; D1, HEK293-D1, dopamine; D2, HEK293-D2, dopamine; GPR35, CHO-K1-hGPR35, zaprinast; 5HT2A, HEK293-5HT2A, 5-hydroxytryptamine; α2A, HEK293-α2A, L-Noradrenaline; β2, A431, isoprenaline; H1, A431, histamine; CB1, CHO-K1-CB1, CP 55940. […]

[3] = target: T2, M4R (Homo sapiens, UniProt P08173); assay: FLIPR assay in HEK293-M4 cells (carbachol-induced Ca2+); format: cell-based; details: DK pretreatment one hour
T2 construct: expressed in transfected cells
T2 sequence (P08173 whole entry): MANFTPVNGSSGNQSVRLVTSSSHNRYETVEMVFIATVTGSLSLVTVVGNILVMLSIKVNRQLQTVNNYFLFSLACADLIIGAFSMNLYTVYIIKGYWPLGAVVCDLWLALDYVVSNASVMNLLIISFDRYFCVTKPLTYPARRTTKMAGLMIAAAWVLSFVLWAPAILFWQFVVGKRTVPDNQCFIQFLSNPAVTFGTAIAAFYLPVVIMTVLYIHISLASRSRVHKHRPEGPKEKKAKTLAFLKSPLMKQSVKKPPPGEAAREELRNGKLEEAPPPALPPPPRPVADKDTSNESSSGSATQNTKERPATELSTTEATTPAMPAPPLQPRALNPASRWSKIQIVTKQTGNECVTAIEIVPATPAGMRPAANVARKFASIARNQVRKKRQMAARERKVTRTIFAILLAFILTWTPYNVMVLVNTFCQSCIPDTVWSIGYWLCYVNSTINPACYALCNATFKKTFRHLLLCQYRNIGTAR
Procedure: (§2) FLIPR assay was carried out as reported earlier. Cell lines were seeded in 96-well plates with black walls (Greiner, USA) at 8.0 × 10^4 cells per well. After approximately 22 h of incubation, the cells were exposed to Calcium-6 dye (Molecular Devices, USA) in HBSS buffer supplemented with 20 mM HEPES (pH 7.4) at 37°C for one hour. Samples, redissolved in DMSO and housed in 96-well drug plates, underwent dilution with FLIPR buffer and subsequent automated introduction to the cells. […] […] Results were presented as fluorescence (arbitrary units) plotted against time.

[4] = target: T3, mu opioid receptor (MOR) (Homo sapiens, UniProt P35372); assay: FLIPR Ca2+ assay in HEK293T-Mu cells; format: cell-based
T3 construct: expressed in transfected cells; host or cells: HEK293T-Mu
T3 sequence (P35372 whole entry): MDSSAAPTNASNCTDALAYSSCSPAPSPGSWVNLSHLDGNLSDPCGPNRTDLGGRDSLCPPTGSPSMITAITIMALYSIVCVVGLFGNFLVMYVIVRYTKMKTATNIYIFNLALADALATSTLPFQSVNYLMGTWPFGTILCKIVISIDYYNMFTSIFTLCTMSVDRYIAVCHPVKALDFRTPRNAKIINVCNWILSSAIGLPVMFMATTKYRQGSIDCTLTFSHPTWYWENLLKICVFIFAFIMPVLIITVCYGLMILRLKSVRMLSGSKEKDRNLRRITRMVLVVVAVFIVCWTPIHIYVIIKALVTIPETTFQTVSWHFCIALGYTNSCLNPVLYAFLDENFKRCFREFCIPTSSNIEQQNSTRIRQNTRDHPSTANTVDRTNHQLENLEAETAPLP
Procedure: FLIPR assay was carried out as reported earlier. Cell lines were seeded in 96-well plates with black walls (Greiner, USA) at 8.0 × 10^4 cells per well. After approximately 22 h of incubation, the cells were exposed to Calcium-6 dye (Molecular Devices, USA) in HBSS buffer supplemented with 20 mM HEPES (pH 7.4) at 37°C for one hour. Samples, redissolved in DMSO and housed in 96-well drug plates, underwent dilution with FLIPR buffer and subsequent automated introduction to the cells. […] In FLIPR antagonist experiments, cells were pre-incubated with the compound for 10 min prior to introducing a specified concentration of agonist. Results were presented as fluorescence (arbitrary units) plotted against time.

[5] = target: T4, M1R (Homo sapiens, UniProt P11229); assay: FLIPR assay in CHO-M1 cells (carbachol-induced Ca2+); format: cell-based; details: DK pretreatment one hour
T4 construct: expressed in transfected cells
T4 sequence (P11229 whole entry): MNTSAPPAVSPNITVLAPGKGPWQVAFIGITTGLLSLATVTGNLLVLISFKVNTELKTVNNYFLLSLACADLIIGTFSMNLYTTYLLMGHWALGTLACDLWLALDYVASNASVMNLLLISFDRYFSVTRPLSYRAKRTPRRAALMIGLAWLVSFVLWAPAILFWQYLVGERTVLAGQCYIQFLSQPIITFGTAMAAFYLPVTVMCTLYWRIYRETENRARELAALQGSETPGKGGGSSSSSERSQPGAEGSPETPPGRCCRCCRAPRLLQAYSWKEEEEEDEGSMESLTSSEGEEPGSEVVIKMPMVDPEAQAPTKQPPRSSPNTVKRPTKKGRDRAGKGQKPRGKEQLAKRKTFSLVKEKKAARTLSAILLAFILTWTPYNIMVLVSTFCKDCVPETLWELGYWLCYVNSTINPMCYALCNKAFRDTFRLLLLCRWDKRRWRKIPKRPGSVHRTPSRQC
Procedure: as §2

[6] = target: T5, Delta opioid receptor (Homo sapiens, UniProt P41143); assay: DMR agonist and desensitization assay in HEK293-Delta cells; format: cell-based
T5 construct: expressed in transfected cells; host or cells: HEK293-Delta
T5 sequence (P41143 whole entry): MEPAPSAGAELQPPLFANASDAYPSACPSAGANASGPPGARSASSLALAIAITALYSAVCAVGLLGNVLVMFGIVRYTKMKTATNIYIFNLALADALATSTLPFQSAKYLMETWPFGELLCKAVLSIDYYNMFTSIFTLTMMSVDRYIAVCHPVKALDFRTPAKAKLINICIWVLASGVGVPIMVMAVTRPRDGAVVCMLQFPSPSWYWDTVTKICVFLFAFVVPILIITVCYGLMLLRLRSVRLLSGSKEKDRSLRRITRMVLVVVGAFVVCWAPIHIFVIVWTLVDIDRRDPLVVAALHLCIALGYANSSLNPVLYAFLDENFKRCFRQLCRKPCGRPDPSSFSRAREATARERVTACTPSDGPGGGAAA
Procedure: as §1
(§3) The DMR assays were conducted as follows. […] In the case of the DMR desensitization assay, cells were pretreated with analytes for one hour before introducing a specific agonist at the indicated concentration, and the agonist-induced DMR signals were monitored for one hour. Finally, for the DMR antagonist assay, cells underwent a 1-hour pretreatment with an antagonist before the addition of a specific agonist at the indicated concentration, and subsequent DMR signals were recorded over one hour.
The receptor selectivity was evaluated against a set of G protein-coupled receptors (GPCRs), including opioid receptor (Delta/Kappa/NOP), dopamine receptor (D1/D2), orphan receptor (GPR35), adrenergic receptor (α2A/β2), serotonin receptor (5HT2A), histamine receptor (H1) and cannabinoid receptor (CB1). Following a 1-hour pretreatment with DK, a 2-min baseline was established before introducing probes and monitoring DMR signals for another hour. The cells and probes were as follows: Delta, HEK293-Delta, SNC162; Kappa, HEK293-Kappa, ICI199441; NOP, HEK293-NOP, MCOPPB; D1, HEK293-D1, dopamine; D2, HEK293-D2, dopamine; GPR35, CHO-K1-hGPR35, zaprinast; 5HT2A, HEK293-5HT2A, 5-hydroxytryptamine; α2A, HEK293-α2A, L-Noradrenaline; β2, A431, isoprenaline; H1, A431, histamine; CB1, CHO-K1-CB1, CP 55940. The other detailed process was the same as above.

[7] = tested on: HEK293T cells; assay: Cytotoxicity assay (CCK-8), HEK293T; format: cell-based; details: 24 h
Procedure: HEK293T, CHO, and HUVEC cell lines were cultured overnight in 96-well plates before exposure to compounds for 24 h. Cell viability was evaluated using the Cell Counting Kit-8 (CCK-8, Beyotime Biotechnology, China), and absorbance at 450 nm was measured with a microplate reader. Cell survival rates were calculated relative to control conditions.

[8] = tested on: HEK293 cells; assay: DMR assay in untransfected HEK293 cells (background); format: cell-based; details: HEK293 cells without MOR
Procedure: as §1, §3

[9] = tested on: C57BL/6 male mice; assay: Antinociceptive tolerance, repeated injection over 7 days, hot-plate assay; format: in vivo; details: DK 20 and 40 mg/kg daily over 7 days, compared with morphine 5 mg/kg
Procedure: Subsequent tolerance assessment was conducted through a repeated-injection protocol employing the hot-plate assay. Mice were injected intraperitoneally (5 mL/kg) with the solvent mixture, morphine (5 mg/kg) or DK (20, 40 mg/kg) daily for a continuous seven-day period. The diminishment of the antinociception of drugs in the assay was employed to evaluate the tolerance, with latency measured one hour after drug administration throughout the week.

## C=CC12CN(C)C3CC14c1ccccc1NC4C1CC2C3CO1 (stereo not drawn) [DK]
[1]
  body weight gain: no significant differences between DK-treated and control groups
  organ coefficients (heart, liver, spleen, lung, kidney): comparable between the two groups
  serum biochemical indicators and histological analysis of major organs (HE staining): no significant structural or biochemical differences
  visible abnormalities of major organs: No visible abnormalities were detected in the major organs
[2]
  reduction of probe DMR response (desensitization): almost unable to reduce the response
[3]
  inhibition of carbachol-induced Ca2+ response: could not concentration-dependently inhibit
[4]; 100 μM DK
  Ca2+ response after naloxone pretreatment: significantly decreased by naloxone
[4]; FLIPR
  maximum Ca2+ response compared with endomorphin-1: less than half of the maximum Ca^2+ response of endomorphin-1
[5]
  inhibition of carbachol-induced Ca2+ response: could not concentration-dependently inhibit
[6]; HEK293-Delta cells
  DMR agonist response: unable to trigger a concentration-dependent DMR response
[6]; HEK293-Delta, 2.5 μM SNC162, pretreatment one hour
  probe-induced DMR response after DK pretreatment: had little effect on the DMR response produced by the respective probes
[6]; HEK293-Delta, SNC162, high-concentration of DK
  antagonist effect at high concentration (decrease of probe DMR response): very weak antagonist effects
[7]
  cytotoxicity (cell viability): had a little effect on HEK293T cells but not in a concentration-dependent manner
[8]
  background DMR response: No background response
[9]
  antinociceptive tolerance: no antinociceptive tolerance was observed

From publication PMC12302426, “Dihydrokoumine, a dual-target analgesic with reduced side effects isolated from a traditional Chinese medicine” (Journal of Advanced Research, 2024)
